In patent US20260206757A1, “METHODS OF CONTROLLING UNDESIRABLE PLANTS WITH PPO HERBICIDES AND COMBINATIONS IN HERBICIDE TOLERANT CROP PLANTS” (BASF AGRO B.V., priority 2022, published 2026):

Columns and labels:
sunflower = conditions: applied to sunflower with at least two true leaves; cited from earlier work
Digitaria sanguinalis = assay: Field experiment, pre-emergence herbicidal activity on bare ground; assay type: in vivo; conditions: DIGSA, Preem, Saflufenacil 25, Flumioxazin 71.4 g ai/ha
Method: (§1) Trial Objective: Efficacy of Saflufenacil in tank mix with Flumioxazin applied in pre-emergence of the weeds on bare ground.
(§2) On field test sites, natural weed infestation was treated, pre-emergence of the weeds on bare soil or post-emergence of the weeds.
(§3) For the pre-emergence treatment, the active compounds, suspended or emulsified in water, were applied by means of finely distributing nozzles on bare ground.
(§4) In the following experiments, the herbicidal activity for the individual herbicidal compositions (solo and mixture applications) was assessed up to 36 days after treatment (DAT). The assessments for the damage on undesired weeds caused by the chemical compositions was carried out using a scale from 0 to 100%, compared to the untreated control plants. Here, 0 means no damage and 100 means complete destruction of the plants.
(§5) [formula] • where X=effect in percent using herbicide (A) at an application rate a; • Y=effect in percent using herbicide (B) at an application rate b; • E=expected effect (in %) of herbicide (A)+herbicide (B) at application rates a+b.
(§6) The value E corresponds to the effect (plant damage or injury) which is to be expected if the activity of the individual compounds is additive. If the observed effect is higher than the value E calculated according to the Colby equation, a synergistic effect is present.

Ambrosia trifida = assay: as above; assay type: in vivo; conditions: AMBTR, Preem, Saflufenacil 50, Flumioxazin 71.4 g ai/ha
Method: as §1, §2, §3, §4, §5, §6

Amaranthus palmeri = assay: as above; assay type: in vivo; conditions: AMAPA, Preem, Saflufenacil 25, Flumioxazin 71.4 g ai/ha
Method: as §1, §2, §3, §4, §5, §6

Setaria faberi = assay: as above; assay type: in vivo; conditions: SETFA, Preem, Saflufenacil 50, Flumioxazin 71.4 g ai/ha
Method: as §1, §2, §3, §4, §5, §6

Sonchus arvensis = assay: Greenhouse experiment, post emergence herbicidal activity; assay type: in vivo; conditions: SONAR
Method: (§7) For the post emergence treatment, the plants were first grown to the 2 to 4 leaf stage (GS 12/14). The plants were cultivated due to their individual requirements at 10-25° C. and 20-35° C. The plants were irrigated as required.
(§8) Here, the herbicidal compositions were suspended or emulsified in water as distribution medium and sprayed using finely distributing nozzles. 1% methylated seed oil (MSO) has been added as adjuvant to each of the solo and mixture treatments.
(§9) In the greenhouse experiments, the herbicidal activity for the individual herbicidal compositions (solo and mixture applications) was assessed 20/21 days after treatment (DAT).
(§10) The evaluation for the damage on undesired weeds caused by the chemical compositions was carried out using a scale from 0 to 100%, compared to the untreated control plants. Here, 0 means no damage and 100 means complete destruction of the plants.

Matricaria chamomilla = assay: as above; assay type: in vivo; conditions: MATCH
Method: as §7, §8, §9, §10

Setaria viridis = assay: as above; assay type: in vivo; conditions: SETVI
Method: as §7, §8, §9, §10

Convolvulus arvensis = assay: as above; assay type: in vivo; conditions: CONAR
Method: as §7, §8, §9, §10

Mercuralis annua = assay: as above; assay type: in vivo; conditions: MERAN
Method: as §7, §8, §9, §10

Chenopodium album = assay: as above; assay type: in vivo; conditions: CHEAL
Method: as §7, §8, §9, §10

Sorghum halepense = assay: as above; assay type: in vivo; conditions: SORHA
Method: as §7, §8, §9, §10

Ambrosia artemisiifolia = assay: as above; assay type: in vivo; conditions: AMBEL
Method: as §7, §8, §9, §10

Hibiscus trionum = assay: as above; assay type: in vivo; conditions: HIBTR
Method: as §7, §8, §9, §10

Erigeron canadensis = assay: as above; assay type: in vivo; conditions: ERICA
Method: as §7, §8, §9, §10

Abutilon theophrasti = assay: as above; assay type: in vivo; conditions: ABUTH
Method: as §7, §8, §9, §10

Echinochloa crus-galli = assay: as above; assay type: in vivo; conditions: ECHCG
Method: as §7, §8, §9, §10

Polygonum aviculare = assay: as above; assay type: in vivo; conditions: POLAV
Method: as §7, §8, §9, §10

Papaver rhoeas = assay: as above; assay type: in vivo; conditions: PAPRH
Method: as §7, §8, §9, §10

Urochloa texana = assay: Field experiment, pre-emergence herbicidal activity on bare ground; assay type: in vivo; conditions: PANTE
Method: as §1
(§11) Trial Objective: Efficacy of Saflufenacil in tank mix with Sulfentrazone applied in pre-emergence of the weeds on bare ground.
as §2, §3, §4, §5, §6

Eleusine indica = assay: as above; assay type: in vivo; conditions: ELEIN
Method: as §1, §11, §2, §3, §4, §5, §6

[1] = BBCH 12-14, Flumioxazin 0.5, Bifenox 168 g ai/ha
[2] = BBCH 12-14, Flumioxazin 0.5, Pyraflufen-ethyl 1.5 g ai/ha
[3] = BBCH 12-14, Flumioxazin 2, Halauxifen 1 g ai/ha
[4] = BBCH 12-14, Saflufenacil 1, Flumioxazin 2 g ai/ha
[5] = BBCH 12-14, Flumioxazin 0.5, Halauxifen 1 g ai/ha
[6] = BBCH 12-14, Flumioxazin 2, Tribenuron-methyl 6 g ai/ha
[7] = BBCH 12-14, Flumioxazin 0.5, Imazamox 10 g ai/ha
[8] = BBCH 12-14, Flumioxazin 2, Fomesafen 123 g ai/ha
[9] = BBCH 12-14, Saflufenacil 4, Flumioxazin 2 g ai/ha
[10] = BBCH 12-14, Saflufenacil 0.5, Flumioxazin 2 g ai/ha
[11] = Preem, Saflufenacil 50, Flumioxazin 71.4 g ai/ha
[12] = Preem, Saflufenacil 25, Flumioxazin 71.4 g ai/ha
[13] = BBCH 12-14, Saflufenacil 0.5, Clethodim 30 g ai/ha
[14] = BBCH 12-14, Saflufenacil 1, Imazamox 10 g ai/ha
[15] = BBCH 12-14, Saflufenacil 1, Bifenox 168 g ai/ha
[16] = BBCH 12-14, Saflufenacil 0.5, Bifenox 168 g ai/ha
[17] = preemergence, Saflufenacil 25, Sulfentrazone 210 g ai/ha

C#CCN1C(=O)COc2cc(F)c(N3C(=O)C4=C(CCCC4)C3=O)cc21 [Flumioxazin, 2-[7-fluoro-3,4-dihydro-3-oxo-4-(2-propyn-1-yl)-2H-1,4-benzoxazin-6-yl]-4,5,6,7-tetrahydro-1H-isoindole-1,3 (2H)-dione]
crop injury (sunflower): without high level of crop injury | % Herbicidal activity (Digitaria sanguinalis): 88% | % Herbicidal activity (Ambrosia trifida): 65% | % Herbicidal activity (Amaranthus palmeri): 85% | % Herbicidal activity (Setaria faberi): 72% | % Herbicidal activity (Sonchus arvensis; [1]): 50% | % Herbicidal activity (Sonchus arvensis; [2]): 50% | % Herbicidal activity (Sonchus arvensis; [3]): 50% | % Herbicidal activity (Matricaria chamomilla; BBCH 12-14, Flumioxazin 1, Fomesafen 123 g ai/ha): 60% | % Herbicidal activity (Matricaria chamomilla; [3]): 65% | % Herbicidal activity (Matricaria chamomilla; [4]): 75% | % Herbicidal activity (Setaria viridis; [5]): 30% | % Herbicidal activity (Setaria viridis; [6]): 70% | % Herbicidal activity (Setaria viridis; [4]): 65% | % Herbicidal activity (Convolvulus arvensis; BBCH 12-14, Flumioxazin 0.5, Fomesafen 123 g ai/ha): 65% | % Herbicidal activity (Convolvulus arvensis; [5]): 65% | % Herbicidal activity (Convolvulus arvensis; BBCH12-14, Flumioxazin 0.5, Pyraflufen-ethyl 1.5 g ai/ha): 65% | % Herbicidal activity (Mercuralis annua; [7]): 70% | % Herbicidal activity (Chenopodium album; BBCH 12-14, Flumioxazin 1, Bifenox 168 g ai/ha): 70% | % Herbicidal activity (Chenopodium album; [8]): 70% | % Herbicidal activity (Sorghum halepense; [9]): 50% | % Herbicidal activity (Ambrosia artemisiifolia; BBCH 12-14, Flumioxazin 4, Imazamox 10 g ai/ha): 95% | % Herbicidal activity (Hibiscus trionum; [7]): 75% | % Herbicidal activity (Hibiscus trionum; [10]): 90% | % Herbicidal activity (Erigeron canadensis; BBCH 12-14, Flumioxazin 1, Pyraflufen-ethyl 1.5 g ai/ha): 60% | % Herbicidal activity (Erigeron canadensis; [4]): 75% | % Herbicidal activity (Abutilon theophrasti; BBCH 12-14, Flumioxazin 1, Imazamox 10 g ai/ha): 90% | % Herbicidal activity (Abutilon theophrasti; BBCH 12-14, Flumioxazin 2, Bifenox 168 g ai/ha): 98% | % Herbicidal activity (Echinochloa crus-galli; [8]): 55% | % Herbicidal activity (Polygonum aviculare; [2]): 45% | % Herbicidal activity (Polygonum aviculare; BBCH 12-14, Flumioxazin 4, Bifenox 168 g ai/ha): 95% | % Herbicidal activity (Polygonum aviculare; [4]): 80% | % Herbicidal activity (Papaver rhoeas; [1]): 85% | % Herbicidal activity (Papaver rhoeas; [5]): 85% | % Herbicidal activity (Papaver rhoeas; [6]): 85% | % Herbicidal activity (Urochloa texana; [11]): 35% | % Herbicidal activity (Eleusine indica; [12]): 80%

CC(C)N(C)S(=O)(=O)NC(=O)c1cc(-n2c(=O)cc(C(F)(F)F)n(C)c2=O)c(F)cc1Cl [Saflufenacil, 2-chloro-5-[3,6-dihydro-3-methyl-2,6-dioxo-4-(trifluoromethyl)-1-(2H)pyrimidinyl]-4-fluoro-N-[[methyl (1-methylethyl)amino]-sulfonyl]benzamide]
% Herbicidal activity (Digitaria sanguinalis): 7% | % Herbicidal activity (Ambrosia trifida): 67% | % Herbicidal activity (Amaranthus palmeri): 27% | % Herbicidal activity (Setaria faberi): 37% | % Herbicidal activity (Sonchus arvensis; [13]): 98% | % Herbicidal activity (Matricaria chamomilla; [13]): 45% | % Herbicidal activity (Matricaria chamomilla; [4]): 45% | % Herbicidal activity (Matricaria chamomilla; [14]): 45% | % Herbicidal activity (Matricaria chamomilla; BBCH 12-14, Saflufenacil 2, Halauxifen 1 g ai/ha): 98% | % Herbicidal activity (Setaria viridis; BBCH 12-14, Saflufenacil 0.5, Imazamox 10 g ai/ha): 25% | % Herbicidal activity (Setaria viridis; [4]): 70% | % Herbicidal activity (Convolvulus arvensis; [13]): 30% | % Herbicidal activity (Convolvulus arvensis; BBCH 12-14, Saflufenacil 0.5, Halauxifen 1 g ai/ha): 30% | % Herbicidal activity (Convolvulus arvensis; [15]): 80% | % Herbicidal activity (Mercuralis annua; [16]): 60% | % Herbicidal activity (Chenopodium album; BBCH 12-14, Saflufenacil 4, Clethodim 30 g ai/ha): 95% | % Herbicidal activity (Sorghum halepense; BBCH 12-14, Saflufenacil 4, Bifenox 168 g ai/ha): 60% | % Herbicidal activity (Sorghum halepense; [9]): 60% | % Herbicidal activity (Ambrosia artemisiifolia; [15]): 80% | % Herbicidal activity (Ambrosia artemisiifolia; BBCH 12-14, Saflufenacil 1, Clethodim 30 g ai/ha): 80% | % Herbicidal activity (Ambrosia artemisiifolia; [14]): 80% | % Herbicidal activity (Ambrosia artemisiifolia; BBCH 12-14, Saflufenacil 1, Tribenuron-methyl 6 g ai/ha): 80% | % Herbicidal activity (Hibiscus trionum; [13]): 80% | % Herbicidal activity (Hibiscus trionum; [10]): 80% | % Herbicidal activity (Erigeron canadensis; [4]): 90% | % Herbicidal activity (Abutilon theophrasti; [15]): 90% | % Herbicidal activity (Abutilon theophrasti; BBCH 12-14, Saflufenacil 2, Fomesafen 1 g ai/ha): 70% | % Herbicidal activity (Echinochloa crus-galli; BBCH 12-14, Saflufenacil 4, Fomesafen 123 g ai/ha): 85% | % Herbicidal activity (Polygonum aviculare; [13]): 75% | % Herbicidal activity (Polygonum aviculare; [4]): 3% | % Herbicidal activity (Papaver rhoeas; [16]): 95% | % Herbicidal activity (Urochloa texana; [11]): 13% | % Herbicidal activity (Urochloa texana; [17]): 20% | % Herbicidal activity (Eleusine indica; [12]): 3% | % Herbicidal activity (Eleusine indica; [17]): 8%
